Reference: patent publication US8394792B2, “Heterocyclic derivatives” (C&C Research Laboratories, priority 2008, dated 2013)
pIC50: −log10 of the molar value. Values after ≈ are worked out from the molar mass of the structure shown. Structures can show the parent of a compound that is named as a salt. Where two headings read alike, the source gives them in different places.

What was measured:
CYP2C9 = CYP2C9 (Homo sapiens, UniProt P11712); assay: biochemical
[1] = Test for solubility according to pH; format: physicochemical; conditions: 37° C. 2 hours; for solubility at 2 h: thermodynamic from solid
Cebus monkey = assay: Test for uricosuric effect in Cebus monkey; format: in vivo; conditions: comparison test
hURAT1 = molecular target: T1, hURAT1 (Homo sapiens, UniProt Q96S37); assay: Test for inhibiting urate reuptake activity via hURAT1 (uric acid transport assay in hURAT1-overexpressed HEK293 cell line); format: cell-based; conditions: hURAT1-overexpressed HEK293 cells, [14C]-uric acid uptake, 100 μM uric acid
T1 construct: expressed in transfected cells; host or cells: HEK293 (human kidney cell line), transient transfection with Fugene6
T1 sequence (Q96S37 1-553): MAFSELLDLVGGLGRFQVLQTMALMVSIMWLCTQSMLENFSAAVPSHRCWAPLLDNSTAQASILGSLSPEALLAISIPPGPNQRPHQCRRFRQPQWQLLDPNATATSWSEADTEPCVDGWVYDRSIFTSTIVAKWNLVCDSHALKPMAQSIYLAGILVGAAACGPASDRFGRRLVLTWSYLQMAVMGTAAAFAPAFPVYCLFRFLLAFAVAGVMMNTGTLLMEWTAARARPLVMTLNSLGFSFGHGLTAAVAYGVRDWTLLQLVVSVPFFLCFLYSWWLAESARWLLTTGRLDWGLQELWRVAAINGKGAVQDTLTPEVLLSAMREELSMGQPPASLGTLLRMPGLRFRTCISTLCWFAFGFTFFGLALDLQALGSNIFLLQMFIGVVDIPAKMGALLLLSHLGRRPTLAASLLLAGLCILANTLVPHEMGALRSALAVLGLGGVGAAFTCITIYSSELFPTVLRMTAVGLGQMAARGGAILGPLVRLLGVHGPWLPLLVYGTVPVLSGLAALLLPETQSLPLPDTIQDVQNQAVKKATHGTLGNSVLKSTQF
Description: Test for Inhibiting Urate Reuptake Activity Via hURAT1
[hURAT1 Overexpression by Transient Transfection in Human Kidney Cell Line]
A human kidney cell line, HEK293 was incubated by using OptiMEM medium in 100 mm dish at (3*10^6 cells) for 24 hours. In order for the expression of hURAT1, a transfection mixture solution (Fugene6 18 μl:hURAT1 DNA 6 μg=3:1, in 600 μl OptiMEM medium/dish) was prepared and kept for 15 minutes at room temperature. To each dish, 600 μl of the mixture solution was injected and then incubated in 37[…] cell incubator for 24 hours. The hURAT1-overexpressed HEK293 cell line was trypsinized and cells were harvested. Cells were resuspended in medium and seeded at 6*10^5 cells/well and incubated for 24 hours in 24-well plate which was surface-coated with Poly-D-Lysine.
[Uric Acid Transport Assay in hURAT1-Overexpressed HEK293 Cell Line]
For each concentration, the stock sample solution was diluted in PBS (1 μl in 800 μl of PBS) as 1.25 fold concentrated working sample solution to obtain final concentrations of 0.01, 0.1, 1 and 10 μM. The hURAT1-overexpressed cell line was washed with 1 ml of PBS. After washing, PBS was discarded and the sample solution was diluted by 1.25 fold with PBS. Preincubation of cells with 200 μl/well of sample solution made above was conducted for 30 minutes in 37[…] cell incubator. After the incubation, each well was treated with 50 μl of PBS containing 500 μM [^14C]-uric acid (final 100 μM of uric acid/well). Cells were incubated for 2 minutes. The cells were washed twice with 1 ml of PBS.
To measure the uric acid uptake, each well was treated with 150 μl of M-per buffer (PIERCE) and kept in 37° C. cell incubator for 30 minutes to make cell lysates. 150 μl of cell lysates was transferred into test tube and 4 ml of scintillation cocktail was added. CPM value of [^14C]-uric acid absorbed into cells was detected using liquid scintillation counter. IC50 for the inhibition of uric acid uptake by each test sample was analyzed by computational numerical processing.

[2] = pH 1.2, simulated gastric fluid, first solution pH about 1.2, 2 mg/mL, read-out: Solubility (μg/mL) pH 1.2
[3] = pH 6.8, aqueous buffer, second solution pH about 6.8, 2 mg/mL, read-out: Solubility (μg/mL) pH 6.8
[4] = 37 °C, pH 1.2, simulated gastric fluid, first solution pH about 1.2, 2 mg/mL, read-out: Solubility (μg/mL) pH 1.2
[5] = 37 °C, pH 6.8, aqueous buffer, second solution pH about 6.8, 2 mg/mL, read-out: Solubility (μg/mL) pH 6.8
[6] = read-out: IC50 (μM) hURAT, level of uric acid reuptake inhibition
[7] = second solution pH about 6.8, 2 mg/mL

CYP2C9, sequence (P11712 whole entry): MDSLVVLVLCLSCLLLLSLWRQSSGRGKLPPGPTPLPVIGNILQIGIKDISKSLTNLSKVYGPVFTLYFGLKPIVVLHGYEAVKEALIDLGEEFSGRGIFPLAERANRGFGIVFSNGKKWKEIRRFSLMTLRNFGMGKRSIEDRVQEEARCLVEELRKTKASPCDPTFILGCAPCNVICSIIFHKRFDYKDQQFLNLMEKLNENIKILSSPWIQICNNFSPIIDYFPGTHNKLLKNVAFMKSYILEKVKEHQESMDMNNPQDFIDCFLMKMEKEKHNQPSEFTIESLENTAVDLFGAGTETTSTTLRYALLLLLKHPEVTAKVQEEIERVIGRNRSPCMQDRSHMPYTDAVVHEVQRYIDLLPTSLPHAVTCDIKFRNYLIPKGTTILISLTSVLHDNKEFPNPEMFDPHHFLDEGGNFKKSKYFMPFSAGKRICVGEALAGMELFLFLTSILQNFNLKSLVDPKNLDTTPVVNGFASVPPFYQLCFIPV

Structure (SMILES)	pIC50 (CYP2C9)	solubility at 2 h [1, 4] [µg/mL]	solubility at 2 h [1, 5] [µg/mL]	IC50 (hURAT1; [6]) [µM]	Solubility (μg/mL) pH 6.8 [1, 7] [μg/mL]	Solubility (μg/mL) pH 1.2 ([1]; first solution pH about 1.2, 2 mg/mL) [μg/mL]	solubility at 2 h [1, 2] [µg/mL]	solubility at 2 h [1, 3] [µg/mL]	enhanced uricosuric activity compared to the compound disclosed in WO2006/057460 (Cebus monkey) [%]	IC50 (hURAT1; IC50 (μM) hURAT, level of uric acid reuptake inhibition) [µM]
Br.O=C(c1cc(Br)c(O)c(Br)c1)N1CCOc2ccncc21 [Compound 3, (3,5-dibromo-4-hydroxy-phenyl)-(2,3-dihydro-pyrido[4,3-b][1,4]oxazin-4-yl)-methanone bromic acid salt]	4.61	–	–	–	–	–	1420	886	180	0.0165
O=C(c1ccc(O)c(C(F)(F)F)c1)N1CCOc2ccncc21 [Compound 12, (2,3-dihydro-pyrido[4,3-b][1,4]oxazin-4-yl)-(4-hydroxy-3-trifluoromethyl-phenyl)-methanone]	< 4.22	1880 (≈ 5800 µM)	132 (≈ 407 µM)	0.0408	–	–	–	–	–	–
Br.O=C(c1cc(Cl)c(O)c(Cl)c1)N1CCOc2ccncc21 [Compound 13, (3,5-dichloro-4-hydroxy-phenyl)-(2,3-dihydro-pyrido[4,3-b][1,4]oxazin-4-yl)-methanone bromic acid salt]	< 4.22	–	–	0.337	–	–	1400	847	–	–
O=C(c1cc(Cl)c(O)c(Cl)c1)N1CCOc2cnccc21 [Compound 15, (3,5-dichloro-4-hydroxy-phenyl)-(2,3-dihydro-pyrido[3,4-b][1,4]oxazin-1-yl)-methanone bromic acid salt]	5.35	1510	–	0.458	453	–	–	–	–	–
O=C(c1cc(Br)c(O)c(Br)c1)N1CCOc2ncc(C(F)(F)F)cc21 [Compound 22-2, (3,5-dibromo-4-hydroxy-phenyl)-(7-trifluoromethyl-2,3-dihydro-pyrido[2,3-b][1,4]oxazin-1-yl)-methanone]	5.02	< 0.1	153 (≈ 317 µM)	0.0043	–	–	–	–	–	–
O=C(c1cc(Cl)c(O)c([N+](=O)[O-])c1)N1CCOc2cnccc21 [Compound 36, (3-chloro-4-hydroxy-5-nitro-phenyl)-(2,3-dihydro-pyrido[3,4-b][1,4]oxazin-1-yl)-methanone]	5.71	1560 (≈ 4650 µM)	743 (≈ 2210 µM)	0.175	–	–	–	–	–	–
O=C(c1ccc(O)c(Cl)c1)N1CCOc2ccncc21 [Compound 37, (3-chloro-4-hydroxy-phenyl)-(2,3-dihydro-pyrido[4,3-b][1,4]oxazin-4-yl)-methanone]	< 4.70	1930 (≈ 6640 µM)	114 (≈ 393 µM)	0.212	–	–	–	–	–	–
O=C(c1cc(Cl)c(O)c(Cl)c1)N1CCOc2ccncc21 [Compound 39, (3,5-dichloro-4-hydroxy-phenyl)-(2,3-dihydro-pyrido[4,3-b][1,4]oxazin-4-yl)-methanone]	< 4.70	1340 (≈ 4120 µM)	480 (≈ 1480 µM)	0.0884	–	–	–	–	–	–
O=C(c1cc(Cl)c(O)c(Cl)c1)N1CCOc2cnccc21 [Compound 41, (3,5-dichloro-4-hydroxy-phenyl)-(2,3-dihydro-pyrido[3,4-b][1,4]oxazin-1-yl)-methanone]	< 4.70	–	–	0.376	156.54	808.87	–	–	–	–

Continued, in another order:

pIC50 (CYP2C9)	solubility at 2 h [1, 4] [µg/mL]	solubility at 2 h [1, 5] [µg/mL]	IC50 (hURAT1; [6]) [µM]	Solubility (μg/mL) pH 6.8 [1, 7] [μg/mL]	Solubility (μg/mL) pH 1.2 ([1]; first solution pH about 1.2, 2 mg/mL) [μg/mL]	Structure (SMILES)	solubility at 2 h [1, 2] [µg/mL]	solubility at 2 h [1, 3] [µg/mL]	enhanced uricosuric activity compared to the compound disclosed in WO2006/057460 (Cebus monkey) [%]	IC50 (hURAT1; IC50 (μM) hURAT, level of uric acid reuptake inhibition) [µM]
< 4.70	106 (≈ 247 µM)	109 (≈ 255 µM)	0.3	–	–	Cc1ccc2c(n1)OCCN2C(=O)c1cc(Br)c(O)c(Br)c1 [Compound 7, (3,5-dibromo-4-hydroxy-phenyl)-(6-methyl-2,3-dihydro-pyrido[2,3-b][1,4]oxazin-1-yl)-methanone]	–	–	–	–
< 4.70	986 (≈ 2230 µM)	344 (≈ 778 µM)	0.353	–	–	CC1(C)CN(C(=O)c2cc(Br)c(O)c(Br)c2)c2cnccc2O1 [Compound 8, (3,5-dibromo-4-hydroxy-phenyl)-(2,2-dimethyl-2,3-dihydro-pyrido[4,3-b][1,4]oxazin-4-yl)-methanone]	–	–	–	–
4.78	1480 (≈ 4410 µM)	747 (≈ 2230 µM)	0.126	–	–	O=C(c1cc(Cl)c(O)c([N+](=O)[O-])c1)N1CCOc2ccncc21 [Compound 14, (3-chloro-4-hydroxy-5-nitro-phenyl)-(2,3-dihydro-pyrido[4,3-b][1,4]oxazin-4-yl)-methanone]	–	–	–	–
< 4.70	1250 (≈ 2580 µM)	134 (≈ 275 µM)	0.363	–	–	COC(=O)COc1c(Br)cc(C(=O)N2CCOc3ccncc32)cc1Br [Compound 24, (2,6-dibromo-4-(2,3-dihydro-pyrido[4,3-b][1,4]oxazin-4-carbonyl)-phenoxy]-acetic acid methyl ester]	–	–	–	–
< 4.70	207 (≈ 484 µM)	579 (≈ 1350 µM)	0.012	–	–	Cc1cnc2c(c1)N(C(=O)c1cc(Br)c(O)c(Br)c1)CCO2 [Compound 27-2, (3,5-dibromo-4-hydroxy-phenyl)-(7-methyl-2,3-dihydro-pyrido[2,3-b][1,4]oxazin-1-yl)-methanone]	–	–	–	–
< 4.70	1090 (≈ 3720 µM)	382 (≈ 1310 µM)	0.235	–	–	O=C(c1cc(F)c(O)c(F)c1)N1CCOc2ccncc21 [Compound 29, (3,5-difluoro-4-hydroxy-phenyl)-(2,3-dihydro-pyrido[4,3-b][1,4]oxazin-4-yl)-methanone]	–	–	–	–
< 4.40	7.2 (≈ 16.1 µM)	332 (≈ 740 µM)	0.028	–	–	O=C(c1cc(Br)c(O)c(Br)c1)N1CCOc2ccnc(Cl)c21 [Compound 30, (5-chloro-2,3-dihydro-pyrido[4,3-b][1,4]oxazin-4-yl)-(3,5-dibromo-4-hydroxy-phenyl)-methanone]	–	–	–	–
< 4.70	1460 (≈ 3240 µM)	234 (≈ 519 µM)	0.277	–	–	O=S(=O)(c1cc(Br)c(O)c(Br)c1)N1CCOc2ccncc21 [Compound 35-2, 2,6-dibromo-4-(2,3-dihydro-pyrido[4,3-b][1,4]oxazin-4-sulfonyl)-phenol]	–	–	–	–
4.74	1310 (≈ 3060 µM)	143 (≈ 333 µM)	0.2	–	–	O=C(Cc1cc(Br)c(O)c(Br)c1)N1CCOc2ccncc21 [Compound 42, 2-(3,5-dibromo-4-hydroxy-phenyl)-1-(2,3-dihydro-pyrido[4,3-b][1,4]oxazin-4-yl)-ethanone]	–	–	–	–
< 4.70	6.4 (≈ 14.6 µM)	330 (≈ 751 µM)	0.0179	–	–	N#Cc1cnc2c(c1)N(C(=O)c1cc(Br)c(O)c(Br)c1)CCO2 [Compound 47-2, 1-(3,5-dibromo-4-hydroxy-benzoyl)-2,3-dihydro-1H-pyrido[2,3-b][1,4]oxazin-7-carbonitrile]	–	–	–	–
< 4.70	34.8 (≈ 83.8 µM)	624 (≈ 1500 µM)	0.128	–	–	O=C(c1cc(Br)c(O)c(Br)c1)N1CCOc2ncncc21 [Compound 62, (3,5-dibromo-4-hydroxy-phenyl)-(6,7-dihydro-pyrimido[4,5-b][1,4]oxazin-5-yl)-methanone]	–	–	–	–
